Data set [1] can be described thus: Plasma and brain tissue concentrations after IV administration in Sprague-Dawley rats. The data set is classed as in vivo, rat. The following applies: for AUCinf / AUClast / Cmax / t1/2 (hr), elimination phase half life / C^0 (ng/ml), plasma concentration extrapolated to time 0 / Cl (ml/hr/kg), whole body clearance / V (l/kg), apparent volume of distribution: male Sprague-Dawley rats; for AUCinf / AUClast / Cmax / t1/2 (hr), elimination phase half life: plasma. The protocol:
To determine plasma and brain tissue concentrations of MNF, the concentrations of MNF and its metabolites in plasma and brain tissue samples obtained from male Sprague-Dawley rats were determined after administration of a single IV dose of 10 mg/kg of MNF. The assays were conducted using an Eclipse XDB-C18 guard column (4.6 mm×12.5 mm) and an Atlantis HILIC column (150×2.1 mm ID, […]). The mobile phase consisted of water containing 0.1% formic acid as Component A and acetonitrile as component B. A linear gradient was run as follows: 0 minutes 95% B; 5 minutes 60% B; 6 minutes 80% B; 10 minutes 95% B at a flow rate of 1.0 ml/minutes. The total run time was 15 minutes per sample. Identification and quantification of the analytes was accomplished using an API-4000 LC-MS/MS in positive electrospray ionization mode and data was acquired employing multiple reaction monitoring (MRM) and the following MRM transitions: MNF (369-200); MNF-Gluc (545-200).
Ten mg/kg MNF was administered IV to male Sprague-Dawley rats and the plasma concentrations of MNF were determined between 10 minutes and 24 hours post administration with the levels measured in 3 animals per time point. In the same study, the concentration of MNF in brain tissue was measured between 10 and 60 minutes after administration with 3 animals per time point. The MNF concentration in brain tissue was 200 ng/mg tissue at 10 minutes after administration and peaked at 30 minutes at 800 ng/mg tissue. The relative distribution between the concentration of MNF in blood (measured as ng/ml) and brain tissue (measured as ng/mg tissue) was 0.2 at 10 minutes and 1.0 at 30 minutes and 60 minutes reflecting an equivalent distribution between both the central and peripheral body compartments. […] Further, the apparent volume of distribution (V) is high indicating extensive tissue distribution.

For data set [2], the system named is cyclin A and cyclin D1. Nature of the data set: Western blot of cell cycle regulator proteins (cyclin A, cyclin D1), C6 glioma. Details: species or system mouse. The following applies: C6 glioma in vivo and in vitro. An excerpt: Western Blot Analysis. Frozen tumor tissues were lysed with radioimmune precipitation buffer containing EGTA and EDTA (Boston BioProducts, Ashland, Mass.) supplemented with a phosphatase inhibitor cocktail (EMB-Calbiochem), and protease inhibitor cocktail (Sigma-Aldrich), according to standard protocols. Equal amounts of protein from the clarified lysates were separated by SDS-polyacrylamide gel electrophoresis under reducing conditions (Invitrogen, Carlsbad, Calif.), and electrotransferred onto polyvinylidene difluoride membranes using the iBlot system (Invitrogen). Western blots were performed according to standard methods, which involved blocking the membrane in 5% non-fat milk, followed by sequential incubation method with the primary antibody of interest and secondary antibody conjugated with the enzyme horseradish peroxidase. The detection of immunoreactive bands was performed by chemiluminescence using the ECL Plus Western Blotting Detection System (GE Healthcare, Piscataway, N.J.). Quantitation of the protein bands was done by volume densitometry using ImageJ software (National Institutes of Health, Bethesda, Md.). […]

Data set [3] has as its target GPR55 (Homo sapiens, UniProt Q9Y2T6). Nature of the data set: GPR55 internalization assay in hGPR55-HEK293 cells. The data set is classed as cell-based. Particulars: 1 μM pretreatment 45 minutes. The protocol: GPR55 internalization assay. Endocytosis of GPR55 was observed following a previously described protocol with minor modifications (Henstridge et al., Br. J. Pharmacol. 160: 604-614, 2010). Briefly, hGPR55-HEK293 cells were grown on Lab-Tek II CC2 chamber slides (Thermo Scientific Nunc, Rochester, N.Y.) for 48 hours in regular media and then were serum starved for 1 hour. A preincubation with 1:1000 rabbit HA antibody (Covance, Md.) was performed in the presence of vehicle (0.1% DMSO) or 1 μM MNF in serum-free media for 45 minutes at 37° C. in the CO2 incubator. Cells were then washed extensively with PBS and treated with 5 μM 01602 in serum-free media for 20 minutes at 37° C. in the CO2 incubator. Subsequently, cells were washed three times, fixed in fresh 3.7% paraformaldehyde in PBS (10 min), and incubated with anti-rabbit Alexa Fluor 488 antibody (Molecular Probes, Eugene, Oreg.; 1:1000, 30 minutes). Cells were washed and fixed for a second time prior to permeabilization with 0.2% Triton X-100 (5 minutes). Incubation with anti-rabbit Alexa Fluor 568 antibody (Molecular Probes; 1:1000, 30 minutes) was carried out to determine the extent of internalized GPR55-HA antibody complex. […]

Data set [4] in a line: Dose escalation and 7-day repeat dose range finding study in Sprague-Dawley rats. The class given is in vivo, rat. Particulars: for Gross Necropsy Observation: interim (Day 8) and terminal (Day 14), red: thymus, mandibular lymph node, black or necrosis: tail. The method, then: A single dose escalation study was performed to select dose levels for 7-day repeat dose study with IV administration in Sprague-Dawley rats. Dose levels were 0, 5, 10 and 25 mg/kg.

Setting [5] is: 10 mg/kg IV, individual rat, 10 mg/kg.

Values joined by “and” are separate entries in the source; they are usually repeats but may differ in a detail not shown here. Equal values may be shown once.

The values below come from patent US11389415B2, “Methods of regulating cannabinoid receptor activity-related disorders and diseases” (The United States of America as represented by the …, priority 2012, dated 2022).

Chain of GPR55 (Q9Y2T6 whole entry): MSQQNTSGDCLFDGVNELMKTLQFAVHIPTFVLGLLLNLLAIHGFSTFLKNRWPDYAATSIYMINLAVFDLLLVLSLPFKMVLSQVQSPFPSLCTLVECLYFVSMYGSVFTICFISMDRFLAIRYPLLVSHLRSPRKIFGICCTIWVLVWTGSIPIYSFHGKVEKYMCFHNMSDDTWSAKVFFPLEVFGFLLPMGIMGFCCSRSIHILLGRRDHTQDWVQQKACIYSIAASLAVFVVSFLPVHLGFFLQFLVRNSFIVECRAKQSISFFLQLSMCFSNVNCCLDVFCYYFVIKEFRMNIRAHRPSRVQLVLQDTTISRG

In the case of `COc1ccc(C[C@@H](C)NC[C@H](O)c2cc(O)cc(O)c2)c2ccccc12` [(R,R′)-MNF, (R,R′)-4′-methoxy-1-naphthylfenoterol], in data set [1] (10 mg/kg IV, Mean), the “AUCinf” value was found to be 4378.0 ng·h/mL; the “AUClast” value came to 3519.3 ng·h/mL; the maximum concentration (Cmax) turned out to be 1823.0 ng/mL; the “t1/2 (hr), elimination phase half life” value was found to be 13.8 h. Besides, in data set [1] (10 mg/kg IV, Mean), the “C^0 (ng/ml), plasma concentration extrapolated to time 0” value was 3168.5 ng/mL; the “Cl (ml/hr/kg), whole body clearance” value was 2339.1 mL/h/kg; the “V (l/kg), apparent volume of distribution” value amounted to 45.1 L/kg. Also, in data set [1] (setting [5]), the “AUCinf” value was 4103.6 ng·h/mL and 5335.2 ng·h/mL and 3695.2 ng·h/mL; the “AUClast” value was 3582.2 ng·h/mL and 4070.7 ng·h/mL and 2905.1 ng·h/mL; the peak concentration (Cmax) was 1780.7 ng/mL and 2304.9 ng/mL and 1383.4 ng/mL; the “t1/2 (hr), elimination phase half life” value was 9.8 h and 18.6 h and 13.0 h. Besides, in data set [1] (setting [5]), the “C^0 (ng/ml), plasma concentration extrapolated to time 0” value was 3033.4 ng/mL and 4131.4 ng/mL and 2340.7 ng/mL; the “Cl (ml/hr/kg), whole body clearance” value is 2436.9 mL/h/kg and 1874.4 mL/h/kg and 2706.2 mL/h/kg; the “V (l/kg), apparent volume of distribution” value is 34.3 L/kg and 50.4 L/kg and 50.6 L/kg. Besides, in data set [1] (rats, 10 mg/kg IV, 10 minutes after administration), the “MNF concentration in brain tissue” value amounted to 200 ng/mg tissue. The “MNF concentration in brain tissue (peak)” value in data set [1] (rats, 10 mg/kg IV, 30 minutes after administration) is 800 ng/mg tissue. Further, the “passage through the blood brain barrier” value in data set [1] (rats, IV) was “capable of passing through the blood brain barrier”. Moreover, the “expression of cell cycle regulator proteins” value in data set [2] is on record as “marked reduction in the expression of cell cycle regulator proteins”. In data set [3], the “effect on O-1602-induced GPR55 internalization” value is “blocked by pretreatment with MNF”. In data set [4] (Sprague Dawley rats, iv, 0, 5, 10, or 25 mg/kg/day, 7-day), the “Body Weight” value is given as “comparable”. The “Clinical Pathology: increases in WBC, % Neut., % RET/REA, and PLC” value in data set [4] (high-dose males and females, Day 8 and Day 14) is given as “Increases: ~2-fold”. The “Gross Necropsy Observation” value in data set [4] (black discoloration or necrosis, tail) is “Discolored black”. Also, the “Gross Necropsy Observation” value in data set [4] (red discoloration, thymus and lymph node) is given as “Discolored red:”. Also, the “toxic effects” value in data set [4] (single dose escalation, IV, 0, 5, 10 and 25 mg/kg, Sprague-Dawley rats) is recorded as “Toxic effects were minimal”.
